{"source": "patent US8314215B2", "about": "“Mild chemically cleavable linker system” (The Board of Trustees of the Leland Stanford Junior …, priority 2006, dated 2012)", "assay_in_all_cases": "LC/MS/MS identification of proteins from mouse liver extracts labeled with MTS-I-49", "type_in_all_cases": "biochemical", "key": {"[1]": {"system": "3-hydrozy-3-methylglutaryl-coenzyme A-synthase", "text": "(§1) (1991) Irreversible inhibition of serine proteases by peptide derivatives of (alpha-aminoalkyl)phosphonate diphenyl esters. Biochemistry 30, 485-493). However, it has not been used for any proteomic applications. We used MTS-I-49 to label mouse liver extracts and analyze the labeled sample by both SDS-PAGE (FIG. 5B) and by direct chemical cleavage or on bead digestion.\n(§2) After enrichment on immobilized avidin, each of the three labeled proteomes (FIG. 5b) was divided into two aliquots. One was prepared for LC-MS/MS analysis by “on bead” digestion, while the other was chemically eluted and digested “in solution.” Proteins identified in each tissue lysate are listed with their accession number and theoretical molecular weight (MW). To compare both approaches, the number of identified peptides and percentage of amino acid sequence coverage is listed for each protein.\n(§3) Proteins in the above Table were identified by LC/MS/MS analysis of on bead digested or chemically eluted proteins from mouse liver extracts labeled with MTS-I-49. […] BLAST database searching identified it as liver carboxylesterase 4. A number of additional endogenously biotinylated proteins were identified in the on-bead digested sample."}, "[2]": {"target": "T1, acetyl-Coenzyme acyltransferase 2 (Mus musculus, UniProt Q8BWT1)", "T1 construct": "from tissue; host or cells: mouse liver extract", "T1 sequence (Q8BWT1 1-397)": "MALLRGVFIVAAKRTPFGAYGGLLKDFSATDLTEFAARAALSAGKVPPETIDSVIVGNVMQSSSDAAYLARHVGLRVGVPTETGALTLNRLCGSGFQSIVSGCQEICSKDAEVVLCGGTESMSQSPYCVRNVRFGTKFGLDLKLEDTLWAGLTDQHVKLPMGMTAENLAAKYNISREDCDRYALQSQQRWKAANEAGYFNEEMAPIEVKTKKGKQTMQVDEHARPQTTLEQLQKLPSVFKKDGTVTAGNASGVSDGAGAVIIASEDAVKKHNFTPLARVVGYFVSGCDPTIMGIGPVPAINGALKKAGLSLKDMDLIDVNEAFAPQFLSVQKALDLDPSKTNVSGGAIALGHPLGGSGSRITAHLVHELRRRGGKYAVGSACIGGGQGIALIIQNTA", "text": "as §1, §2, §3"}, "hemoglobin alpha 1": {"target": "T2, hemoglobin alpha 1 (Mus musculus, UniProt P01942)", "T2 construct": "from tissue; host or cells: mouse liver extract", "T2 sequence (P01942 2-142 limits assumed)": "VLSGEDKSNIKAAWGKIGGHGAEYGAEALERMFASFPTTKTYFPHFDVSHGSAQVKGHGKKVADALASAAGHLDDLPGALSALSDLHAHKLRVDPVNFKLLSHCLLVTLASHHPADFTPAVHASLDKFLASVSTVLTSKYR", "T2 sequence (P02088 2-147 partner limits assumed)": "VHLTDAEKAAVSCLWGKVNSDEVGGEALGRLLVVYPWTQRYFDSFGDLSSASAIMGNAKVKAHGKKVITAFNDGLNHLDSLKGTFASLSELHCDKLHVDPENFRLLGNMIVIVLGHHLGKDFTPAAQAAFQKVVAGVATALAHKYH", "text": "as §1, §2, §3"}, "[3]": {"target": "T3, peroxisomal acyl-CoA oxidase (Mus musculus, UniProt Q9R0H0)", "T3 construct": "from tissue; host or cells: mouse liver extract", "T3 sequence (Q9R0H0 1-661)": "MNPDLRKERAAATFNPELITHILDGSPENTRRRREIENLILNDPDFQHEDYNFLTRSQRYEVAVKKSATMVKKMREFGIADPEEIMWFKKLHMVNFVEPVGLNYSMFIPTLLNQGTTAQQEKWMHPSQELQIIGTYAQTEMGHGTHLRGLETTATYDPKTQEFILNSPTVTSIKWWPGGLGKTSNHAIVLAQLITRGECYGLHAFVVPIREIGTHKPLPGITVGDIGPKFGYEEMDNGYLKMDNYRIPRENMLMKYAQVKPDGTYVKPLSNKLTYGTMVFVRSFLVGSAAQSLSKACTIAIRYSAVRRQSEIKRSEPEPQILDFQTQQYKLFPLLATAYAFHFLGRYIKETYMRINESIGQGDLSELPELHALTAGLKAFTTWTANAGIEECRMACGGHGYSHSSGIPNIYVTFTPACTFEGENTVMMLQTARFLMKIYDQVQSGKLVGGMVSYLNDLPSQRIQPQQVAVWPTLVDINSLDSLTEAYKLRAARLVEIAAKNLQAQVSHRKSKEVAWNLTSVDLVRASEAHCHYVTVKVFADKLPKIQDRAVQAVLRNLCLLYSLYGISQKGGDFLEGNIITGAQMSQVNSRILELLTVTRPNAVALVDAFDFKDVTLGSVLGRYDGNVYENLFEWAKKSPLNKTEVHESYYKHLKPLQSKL", "text": "as §1, §2, §3"}, "[4]": {"target": "T4, propionyl-Coenzyme A carboxylase (Mus musculus, UniProt Q91ZA3)", "T4 construct": "from tissue; host or cells: mouse liver extract", "T4 sequence (Q91ZA3 49-724)": "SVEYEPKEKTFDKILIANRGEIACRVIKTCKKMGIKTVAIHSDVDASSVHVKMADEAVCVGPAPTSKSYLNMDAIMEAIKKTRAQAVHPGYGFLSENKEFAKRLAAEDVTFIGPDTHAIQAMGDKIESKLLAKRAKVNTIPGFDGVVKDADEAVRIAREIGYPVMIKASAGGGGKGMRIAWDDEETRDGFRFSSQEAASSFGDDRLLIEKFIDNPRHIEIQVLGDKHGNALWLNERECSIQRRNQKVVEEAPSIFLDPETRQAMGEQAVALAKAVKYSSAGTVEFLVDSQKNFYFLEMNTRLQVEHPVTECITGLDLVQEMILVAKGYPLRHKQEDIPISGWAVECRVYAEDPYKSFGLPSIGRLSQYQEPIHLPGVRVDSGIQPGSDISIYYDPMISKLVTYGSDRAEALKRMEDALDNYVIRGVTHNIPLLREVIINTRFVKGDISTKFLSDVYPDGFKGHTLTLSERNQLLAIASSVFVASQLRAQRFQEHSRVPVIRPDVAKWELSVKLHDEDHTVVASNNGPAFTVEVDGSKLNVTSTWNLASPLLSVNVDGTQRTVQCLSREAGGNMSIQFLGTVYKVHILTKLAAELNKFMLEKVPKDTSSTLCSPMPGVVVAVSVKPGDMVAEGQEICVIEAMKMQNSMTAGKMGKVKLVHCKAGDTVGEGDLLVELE", "T4 sequence (Q99MN9 29-541 partner)": "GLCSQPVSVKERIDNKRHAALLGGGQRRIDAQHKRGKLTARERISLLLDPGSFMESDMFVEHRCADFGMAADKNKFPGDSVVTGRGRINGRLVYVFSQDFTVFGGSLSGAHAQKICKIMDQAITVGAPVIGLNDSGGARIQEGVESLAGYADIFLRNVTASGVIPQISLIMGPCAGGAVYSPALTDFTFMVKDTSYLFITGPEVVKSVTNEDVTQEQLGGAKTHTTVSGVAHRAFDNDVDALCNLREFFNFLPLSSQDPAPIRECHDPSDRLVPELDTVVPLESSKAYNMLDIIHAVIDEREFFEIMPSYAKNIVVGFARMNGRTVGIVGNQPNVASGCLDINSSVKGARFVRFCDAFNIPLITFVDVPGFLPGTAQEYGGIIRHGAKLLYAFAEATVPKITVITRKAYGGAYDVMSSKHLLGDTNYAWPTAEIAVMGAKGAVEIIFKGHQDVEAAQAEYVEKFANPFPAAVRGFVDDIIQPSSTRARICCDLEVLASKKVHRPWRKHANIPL", "text": "as §1, §2, §3"}, "[5]": {"conditions": "chemically eluted, digested in solution"}}, "data": [{"smiles": "C[C@H](NC(=O)c1ccc(N=Nc2cc(CCNC(=O)CCCC[C@@H]3SC[C@@H]4NC(=O)N[C@@H]43)ccc2O)cc1)C(=O)N[C@@H](C)C(=O)NC(Cc1ccccc1)P(=O)(Oc1ccccc1)Oc1ccccc1", "note": "(some centres unmarked) [MTS-I-49]", "values": [{"measurement": "Chemical Cleavage, number of identified peptides", "setting": "[1]; [5]", "result": 0}, {"measurement": "On Bead Digestion, amino acid sequence coverage", "setting": "[1]; on bead digestion", "result": 6, "unit": "%"}, {"measurement": "On Bead Digestion, number of identified peptides", "setting": "[1]; on bead digestion", "result": 2}, {"measurement": "Chemical Cleavage, amino acid sequence coverage", "setting": "[2]; [5]", "result": 15, "unit": "%"}, {"measurement": "Chemical Cleavage, number of identified peptides", "setting": "[2]; [5]", "result": 2}, {"measurement": "On Bead Digestion, amino acid sequence coverage", "setting": "[2]; on bead digestion", "result": 26, "unit": "%"}, {"measurement": "On Bead Digestion, number of identified peptides", "setting": "[2]; on bead digestion", "result": 5}, {"measurement": "Chemical Cleavage, number of identified peptides", "setting": "hemoglobin alpha 1; [5]", "result": 0}, {"measurement": "On Bead Digestion, amino acid sequence coverage", "setting": "hemoglobin alpha 1; on bead digestion", "result": 25, "unit": "%"}, {"measurement": "On Bead Digestion, number of identified peptides", "setting": "hemoglobin alpha 1; on bead digestion", "result": 3}, {"measurement": "Chemical Cleavage, number of identified peptides", "setting": "[3]; [5]", "result": 0}, {"measurement": "On Bead Digestion, amino acid sequence coverage", "setting": "[3]; on bead digestion", "result": 4, "unit": "%"}, {"measurement": "On Bead Digestion, number of identified peptides", "setting": "[3]; on bead digestion", "result": 2}, {"measurement": "Chemical Cleavage, amino acid sequence coverage", "setting": "[4]; [5]", "result": 8, "unit": "%"}, {"measurement": "Chemical Cleavage, number of identified peptides", "setting": "[4]; [5]", "result": 3}, {"measurement": "On Bead Digestion, amino acid sequence coverage", "setting": "[4]; on bead digestion", "result": 45, "unit": "%"}, {"measurement": "On Bead Digestion, number of identified peptides", "setting": "[4]; on bead digestion", "result": 22}]}]}
